Read-outs that look alike come from different tables or passages of the source. Starred links: 1 amine or outer side, 2 acyl side, 3 side chain; linkers in the order of their positions; H or OH if unused. Positions of bridges follow the written chain, without caps; N, C: chain ends. Non-standard residues stand in square brackets, D forms with d. Residues, ends and D or L forms follow the SMILES beside them. hCys = N[C@@H](CCS)C(=O)O; Dab = NCC[C@H](N)C(=O)O; Dap = NC[C@H](N)C(=O)O; X1 = O=C(C[*:2])[*:1]; X2 = O=C(C[*:1])[*:2]
Experiments:
[1] = molecular target: human integrin αvβ5 (Homo sapiens, UniProt P06756+P18084); test: Evaluation of integrin binding property (surface plasmon resonance, Biacore 3000, immobilized cyclic peptide)
human integrin αvβ5, sequence (P06756 31-1048): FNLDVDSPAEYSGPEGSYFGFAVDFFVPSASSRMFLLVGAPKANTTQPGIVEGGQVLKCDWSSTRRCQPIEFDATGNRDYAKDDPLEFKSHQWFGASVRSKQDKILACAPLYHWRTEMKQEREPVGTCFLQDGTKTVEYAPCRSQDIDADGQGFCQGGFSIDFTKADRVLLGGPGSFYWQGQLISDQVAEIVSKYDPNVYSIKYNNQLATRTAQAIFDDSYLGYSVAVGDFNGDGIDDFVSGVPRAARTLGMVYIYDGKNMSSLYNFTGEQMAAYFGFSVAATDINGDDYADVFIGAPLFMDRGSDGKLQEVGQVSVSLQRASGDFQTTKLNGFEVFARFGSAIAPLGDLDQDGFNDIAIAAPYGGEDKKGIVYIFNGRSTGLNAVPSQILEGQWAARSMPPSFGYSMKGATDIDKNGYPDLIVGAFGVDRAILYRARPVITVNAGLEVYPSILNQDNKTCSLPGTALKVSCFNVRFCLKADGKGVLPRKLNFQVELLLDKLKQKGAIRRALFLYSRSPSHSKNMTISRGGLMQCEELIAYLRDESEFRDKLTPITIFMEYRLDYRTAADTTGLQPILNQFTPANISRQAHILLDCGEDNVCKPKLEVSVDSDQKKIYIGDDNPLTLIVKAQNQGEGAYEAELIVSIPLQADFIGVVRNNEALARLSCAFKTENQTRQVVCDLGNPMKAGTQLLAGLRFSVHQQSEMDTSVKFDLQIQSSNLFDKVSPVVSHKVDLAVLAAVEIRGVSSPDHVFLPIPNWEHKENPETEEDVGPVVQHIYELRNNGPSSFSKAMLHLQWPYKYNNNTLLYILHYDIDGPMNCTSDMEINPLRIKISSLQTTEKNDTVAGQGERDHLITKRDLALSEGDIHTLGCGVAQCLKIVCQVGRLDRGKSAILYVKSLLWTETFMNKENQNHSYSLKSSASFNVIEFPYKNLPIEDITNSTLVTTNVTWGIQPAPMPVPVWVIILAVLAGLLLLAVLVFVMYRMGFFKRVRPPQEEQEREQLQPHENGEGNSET
human integrin αvβ5, sequence (P18084 24-799): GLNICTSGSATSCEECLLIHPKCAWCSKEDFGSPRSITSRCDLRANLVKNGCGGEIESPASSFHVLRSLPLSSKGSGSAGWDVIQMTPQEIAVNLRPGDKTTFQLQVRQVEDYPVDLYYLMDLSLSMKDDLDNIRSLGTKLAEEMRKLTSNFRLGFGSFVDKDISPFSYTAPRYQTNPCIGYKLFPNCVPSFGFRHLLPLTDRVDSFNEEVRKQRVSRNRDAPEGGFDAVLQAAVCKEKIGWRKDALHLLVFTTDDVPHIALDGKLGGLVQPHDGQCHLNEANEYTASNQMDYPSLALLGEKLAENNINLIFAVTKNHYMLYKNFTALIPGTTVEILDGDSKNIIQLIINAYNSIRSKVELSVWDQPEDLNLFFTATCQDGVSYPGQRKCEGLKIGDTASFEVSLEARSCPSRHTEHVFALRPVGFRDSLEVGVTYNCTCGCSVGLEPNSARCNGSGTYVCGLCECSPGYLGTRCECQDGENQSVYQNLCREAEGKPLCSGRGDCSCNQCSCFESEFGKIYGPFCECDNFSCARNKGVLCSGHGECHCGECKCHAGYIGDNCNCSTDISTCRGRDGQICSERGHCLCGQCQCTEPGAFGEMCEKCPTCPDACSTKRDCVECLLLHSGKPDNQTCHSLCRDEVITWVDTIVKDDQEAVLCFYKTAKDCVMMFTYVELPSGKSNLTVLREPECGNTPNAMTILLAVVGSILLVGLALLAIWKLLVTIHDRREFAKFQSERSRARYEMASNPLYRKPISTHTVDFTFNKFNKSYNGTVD
Procedure, shortened: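 SPR with cyclic peptide amine-coupled via EDC/NHS to a CM5 chip, blank channel as reference. Integrin αvβ5 at 30, 100, 300 and 1,000 nM injected 10 min at 25 °C in HEPES buffer pH 7.4 with 5 mM MgCl2, 30 min buffer flow, EDTA regeneration; Kd from reference-subtracted signals, graded by category.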

[2] = Evaluation of molecule stability (alkali treatment, residual rate by LC/MS); format: physicochemical; details: for Performance evaluation: Stability (residual rate of cyclic peptide after alkali treatment): 500 μM peptide aqueous solution plus equivalent of 1 M sodium hydroxide, 15° C., 3 hours, LC/MS peak area; for Stability (molecule stability, residual rate of the cyclic peptide rank): alkali treatment, residual rate by LC/MS; for molecule stability (in words): summary of Table 9 to Table 13
Procedure, shortened: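 500 μM aqueous cyclic peptide mixed with an equal volume of 1 M NaOH and held 3 h at 15 °C. Residual rate is total LC/MS peak area after treatment relative to untreated (100%), using a C18 column, pH 3 ammonium formate/acetonitrile gradient, 45 °C, ESI±.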

[3] = SPR, 25° C., HEPES buffer with 5 mM magnesium chloride, integrin 30-1,000 nM, read-out: Performance evaluation: Binding activity (dissociation constant between the cyclic peptide and human integrin αvβ5)
[4] = surface plasmon resonance, immobilized cyclic peptide, human integrin αvβ5, read-out: Binding activity (integrin binding property, dissociation constant rank)

Row | Kd [1, 3] [nM] | Kd [1, 4] [nM] | SMILES | Performance evaluation: Stability (residual rate of cyclic peptide after alkali treatment) [2] | Stability (molecule stability, residual rate of the cyclic peptide rank) [2] | molecule stability (in words) [2]
1 | 50 to 100 | – | C[C@H](NC(=O)[C@H](CCCCN)NC(=O)[C@H](CCCCN)NC(=O)[C@@H](N)CCCCN)C(=O)N[C@H]1CCSCC(=O)NCC[C@@H](C(=O)N[C@@H](CC(=O)O)C(=O)O)NC(=O)[C@H](CCCNC(=N)N)NC(=O)[C@H](Cc2ccc(O)cc2)NC(=O)[C@H](CC(N)=O)NC(=O)[C@H](CC(=O)O)NC(=O)CNC(=O)[C@H](CCCNC(=N)N)NC(=O)[C@@H]2CCCN2C(=O)[C@H](CCC(=O)O)NC1=O [Cyclic peptide 42, KKKA-(Hcy)-EPRGDNYR(Dab(acetyl))D] (H-KKKA[hCys]EPRGDNYR[Dab]D-OH; linker 5-14 via X2) | A (The residual rate of the cyclic peptide is 70% or more.) | – | –
2 | – | < 50 | C[C@H](NC(=O)[C@H](CCCCN)NC(=O)[C@H](CCCCN)NC(=O)[C@@H](N)CCCCN)C(=O)N[C@H]1CNC(=O)CSC[C@@H](C(=O)O)NC(=O)[C@H](CCCNC(=N)N)NC(=O)[C@H](Cc2ccc(O)cc2)NC(=O)[C@H](CC(N)=O)NC(=O)[C@H](CC(=O)O)NC(=O)CNC(=O)[C@H](CCCNC(=N)N)NC(=O)[C@@H]2CCCN2C(=O)[C@H](CCC(=O)O)NC1=O [Cyclic peptide 166, KKKA(Dap(acetyl))EPRGDNYR(C), reference compound] (H-KKKA[Dap]EPRGDNYRC-OH; linker 5-14 via X1) | – | D (The residual rate of the cyclic peptide is less than 30%.) | a practically sufficient molecule stability could be obtained
3 | 50 to 100 | – | CC[C@H](C)[C@@H]1NC(=O)[C@H](C)NC(=O)[C@@H](NC(=O)CNC(=O)[C@H](CCCCN)NC(=O)[C@H](CCCCN)NC(=O)[C@@H](N)CCCCN)CCSCC(=O)NCC[C@@H](C(=O)N[C@@H](C)C(=O)O)NC(=O)[C@H](C)NC(=O)[C@H](CCCNC(=N)N)NC(=O)[C@H](Cc2ccccc2)NC(=O)[C@H](CC(N)=O)NC(=O)[C@H](CC(=O)O)NC(=O)CNC(=O)[C@H](CCCNC(=N)N)NC(=O)[C@@H]2CCCN2C1=O [Cyclic peptide 20, KKKG-(Hcy)-AIPRGDNFRA(Dab(acetyl))A] (H-KKKG[hCys]AIPRGDNFRA[Dab]A-OH; linker 5-16 via X2) | A (The residual rate of the cyclic peptide is 70% or more.) | – | –
4 | – | 50 to 100 | N=C(N)NCCC[C@@H]1NC(=O)[C@H](Cc2ccc(O)cc2)NC(=O)[C@H](CC(N)=O)NC(=O)[C@H](CC(=O)O)NC(=O)CNC(=O)[C@H](CCCNC(=N)N)NC(=O)[C@@H]2CCCN2C(=O)[C@H](CCC(=O)O)NC(=O)[C@@H](NC(=O)[C@H](CCCCN)NC(=O)[C@H](CCCCN)NC(=O)[C@@H](N)CCCCN)CNC(=O)CSC[C@@H](C(=O)O)NC1=O [Cyclic peptide 167, KKK(Dap(acetyl))EPRGDNYR(C), reference compound] (H-KKK[Dap]EPRGDNYRC-OH; linker 4-13 via X1) | – | D (The residual rate of the cyclic peptide is less than 30%.) | a practically sufficient molecule stability could be obtained
5 | < 50 | – | CC[C@H](C)[C@@H]1NC(=O)[C@@H](NC(=O)[C@H](C)NC(=O)[C@H](CCCCN)NC(=O)[C@H](CCCCN)NC(=O)[C@@H](N)CCCCN)CCSCC(=O)NCC[C@@H](C(=O)N[C@@H](C)C(=O)O)NC(=O)[C@H](CCCNC(=N)N)NC(=O)[C@H](Cc2ccccc2)NC(=O)[C@H](CC(N)=O)NC(=O)[C@H](CC(=O)O)NC(=O)CNC(=O)[C@H](CCCNC(=N)N)NC(=O)[C@@H]2CCCN2C1=O [Cyclic peptide 2, KKKA-(Hcy)-IPRGDNFR(Dab(acetyl))A] (H-KKKA[hCys]IPRGDNFR[Dab]A-OH; linker 5-14 via X2) | A (The residual rate of the cyclic peptide is 70% or more.) | – | –
6 | < 50 | – | CC[C@H](C)[C@@H]1NC(=O)[C@@H](NC(=O)[C@H](C)NC(=O)[C@H](CCCCN)NC(=O)[C@H](CCCCN)NC(=O)[C@@H](N)CCCCN)CCSCC(=O)NCC[C@@H](C(=O)N[C@@H](C)C(=O)O)NC(=O)[C@H](CCCNC(=N)N)NC(=O)[C@H](Cc2ccccc2)NC(=O)[C@H]([C@@H](C)O)NC(=O)[C@H](CC(=O)O)NC(=O)CNC(=O)[C@H](CCCNC(=N)N)NC(=O)[C@@H]2CCCN2C1=O [Cyclic peptide 56, KKKA-(Hcy)-IPRGDTFR(Dab(acetyl))A] (H-KKKA[hCys]IPRGDTFR[Dab]A-OH; linker 5-14 via X2) | A (The residual rate of the cyclic peptide is 70% or more.) | – | –
7 | – | < 50 | CC(C)[C@@H]1NC(=O)[C@@H](NC(=O)[C@H](CCCCN)NC(=O)[C@H](CCCCN)NC(=O)[C@@H](N)CCCCN)CCSCC(=O)NCC[C@@H](C(=O)O)NC(=O)[C@H](CO)NC(=O)[C@H](Cc2ccccc2)NC(=O)[C@H]([C@@H](C)O)NC(=O)[C@H](CC(=O)O)NC(=O)CNC(=O)[C@H](CCCNC(=N)N)NC(=O)[C@@H]2CCCN2C1=O [Cyclic peptide 153, KKK-(Hcy)-VPRGDTFS(Dab(acetyl))] (H-KKK[hCys]VPRGDTFS[Dab]-OH; linker 4-13 via X2) | – | A (The residual rate of the cyclic peptide is 70% or more.) | –
8 | < 50 | – | CC[C@H](C)[C@@H]1NC(=O)[C@@H](NC(=O)[C@H](C)NC(=O)[C@H](CCCCN)NC(=O)[C@H](CCCCN)NC(=O)[C@@H](N)CCCCN)CCSCC(=O)NCC[C@@H](C(=O)N[C@@H](C)C(=O)O)NC(=O)[C@H](C)NC(=O)[C@H](Cc2ccccc2)NC(=O)[C@H](CO)NC(=O)[C@H](CC(=O)O)NC(=O)CNC(=O)[C@H](CCCNC(=N)N)NC(=O)[C@@H]2CCCN2C1=O [Cyclic peptide 92, KKKA-(Hcy)-IPRGDSFA(Dab(acetyl))A] (H-KKKA[hCys]IPRGDSFA[Dab]A-OH; linker 5-14 via X2) | A (The residual rate of the cyclic peptide is 70% or more.) | – | –
9 | 50 to 100 | – | N=C(N)NCCC[C@@H]1NC(=O)[C@H](Cc2ccc(O)cc2)NC(=O)[C@H](CC(N)=O)NC(=O)[C@H](CC(=O)O)NC(=O)CNC(=O)[C@H](CCCNC(=N)N)NC(=O)[C@@H]2CCCN2C(=O)[C@H](CCC(=O)O)NC(=O)[C@@H](NC(=O)[C@H](CC(=O)O)NC(=O)[C@H](CCCCN)NC(=O)[C@H](CCCCN)NC(=O)[C@@H](N)CCCCN)CCSCC(=O)NCC[C@@H](C(=O)N[C@@H](CC(=O)O)C(=O)O)NC1=O [Cyclic peptide 38, KKKD-(Hcy)-EPRGDNYR(Dab(acetyl))D] (H-KKKD[hCys]EPRGDNYR[Dab]D-OH; linker 5-14 via X2) | A (The residual rate of the cyclic peptide is 70% or more.) | – | –
10 | – | < 50 | CC(C)[C@@H]1NC(=O)[C@@H](NC(=O)[C@H](CCCCN)NC(=O)[C@H](CCCCN)NC(=O)[C@@H](N)CCCCN)CCNC(=O)CSC[C@@H](C(=O)O)NC(=O)[C@H](C)NC(=O)[C@H](Cc2ccccc2)NC(=O)[C@H]([C@@H](C)O)NC(=O)[C@H](CC(=O)O)NC(=O)CNC(=O)[C@H](CCCNC(=N)N)NC(=O)[C@@H]2CCCN2C1=O [Cyclic peptide 141, KKK(Dab(acetyl))VPRGDTFA(C)] (H-KKK[Dab]VPRGDTFAC-OH; linker 4-13 via X1) | – | C (The residual rate of the cyclic peptide is 30% or more and less than 50%.) | –
11 | 50 to 100 | – | C[C@H](NC(=O)[C@@H]1CCNC(=O)CSCC[C@H](NC(=O)[C@H](C)NC(=O)[C@H](CCCCN)NC(=O)[C@H](CCCCN)NC(=O)[C@@H](N)CCCCN)C(=O)N[C@@H](CCC(=O)O)C(=O)N2CCC[C@H]2C(=O)N[C@@H](CCCNC(=N)N)C(=O)NCC(=O)N[C@@H](CC(=O)O)C(=O)N[C@@H](CC(N)=O)C(=O)N[C@@H](Cc2ccc(O)cc2)C(=O)N[C@@H](CCCNC(=N)N)C(=O)N1)C(=O)O [Cyclic peptide 41, KKKA-(Hcy)-EPRGDNYR(Dab(acetyl))A] (H-KKKA[hCys]EPRGDNYR[Dab]A-OH; linker 5-14 via X2) | A (The residual rate of the cyclic peptide is 70% or more.) | – | –
12 | < 50 | – | CC[C@H](C)[C@@H]1NC(=O)[C@@H](NC(=O)[C@H](CCCCN)NC(=O)[C@H](CCCCN)NC(=O)[C@@H](N)CCCCN)CCSCC(=O)NCC[C@@H](C(=O)O)NC(=O)[C@H](Cc2ccccc2)NC(=O)[C@H](CC(N)=O)NC(=O)[C@H](CC(=O)O)NC(=O)CNC(=O)[C@H](CCCNC(=N)N)NC(=O)[C@@H]2CCCN2C1=O [Cyclic peptide 13, KKK-(Hcy)-IPRGDNF(Dab(acetyl))] (H-KKK[hCys]IPRGDNF[Dab]-OH; linker 4-12 via X2) | A (The residual rate of the cyclic peptide is 70% or more.) | – | –
13 | 50 to 100 | – | CC(C)C[C@@H]1NC(=O)[C@@H](NC(=O)CNC(=O)[C@H](CCCCN)NC(=O)[C@H](CCCCN)NC(=O)[C@@H](N)CCCCN)CCSCC(=O)NCC[C@@H](C(=O)N[C@@H](C)C(=O)O)NC(=O)[C@H](CCCNC(=N)N)NC(=O)[C@H](Cc2ccccc2)NC(=O)[C@H](CO)NC(=O)[C@H](CC(=O)O)NC(=O)CNC(=O)[C@H](CCCNC(=N)N)NC(=O)[C@@H]2CCCN2C1=O [Cyclic peptide 28, KKKG-(Hcy)-LPRGDSFR(Dab(acetyl))A] (H-KKKG[hCys]LPRGDSFR[Dab]A-OH; linker 5-14 via X2) | A (The residual rate of the cyclic peptide is 70% or more.) | – | –
